Results reported in PubChem BioAssay (NCI).
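Five concentrations, 48 hours, 96-well plates. TGI denotes the concentration required for complete inhibition of growth.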

Assays:
Assay in all cases: NCI-60 cell line screen, 48 h
[1] = test system: 786-0 renal
[2] = test system: A498 renal
[3] = test system: A549 NSCLC
[4] = test system: ACHN renal
[5] = test system: BT-549 breast
[6] = test system: CCRF-CEM leukemia
[7] = test system: COLO 205 colon
[8] = test system: DU-145 prostate
[9] = test system: EKVX NSCLC
[10] = test system: HCC-2998 colon
[11] = test system: HCT-116 colon
[12] = test system: HCT-15 colon
[13] = test system: HL-60(TB) leukemia
[14] = test system: HOP-62 NSCLC
[15] = test system: HOP-92 NSCLC
[16] = test system: HS 578T breast
[17] = test system: HT29 colon
[18] = test system: IGROV1 ovarian
[19] = test system: K-562 leukemia
[20] = test system: KM12 colon
[21] = test system: LOX IMVI melanoma
[22] = test system: M14 melanoma
[23] = test system: MALME-3M melanoma
[24] = test system: MCF7 breast
[25] = test system: MDA-MB-231 breast
[26] = test system: MDA-N
[27] = test system: NCI-H226 lung
[28] = test system: NCI-H23 lung
[29] = test system: NCI-H460 lung
[30] = test system: NCI-H522 lung
[31] = test system: NCI/ADR-RES ovarian
[32] = test system: OVCAR-3 ovarian
[33] = test system: OVCAR-4 ovarian
[34] = test system: OVCAR-5 ovarian
[35] = test system: OVCAR-8 ovarian
[36] = test system: RPMI-8226 leukemia
[37] = test system: RXF 393 renal
[38] = test system: SF-268 CNS
[39] = test system: SF-295 CNS
[40] = test system: SK-MEL-2 melanoma
[41] = test system: SK-MEL-28 melanoma
[42] = test system: SK-MEL-5 melanoma
[43] = test system: SK-OV-3 ovarian
[44] = test system: SN12C renal
[45] = test system: SNB-19 CNS
[46] = test system: SNB-75 CNS
[47] = test system: SR leukemia
[48] = test system: SW-620 colon
[49] = test system: T-47D breast
[50] = test system: TK-10 renal
[51] = test system: U251 CNS
[52] = test system: UACC-257 melanoma
[53] = test system: UACC-62 melanoma
[54] = test system: UO-31 renal
[55] = test system: CAKI-1 renal
[56] = test system: MDA-MB-435
[57] = test system: MOLT-4 leukemia
[58] = test system: PC-3 prostate
[59] = test system: SF-539 CNS

**Q.** For `c1ccc(CCN2CCN=C2Cc2ccccc2)cc1`, which TGI [1] is on record?
**A.** > 100 µM

**Q.** And the TGI [2]?
**A.** > 100 µM

**Q.** What about the TGI [3] of the same molecule?
**A.** > 100 µM

**Q.** And the TGI [4]?
**A.** > 100 µM

**Q.** What about the TGI [5] of the same molecule?
**A.** > 100 µM

**Q.** What about the TGI [6] of the same molecule?
**A.** > 100 µM

**Q.** What about the TGI [7] of the same molecule?
**A.** > 100 µM

**Q.** What about the TGI [8] of the same molecule?
**A.** > 100 µM

**Q.** And the TGI [9]?
**A.** > 100 µM

**Q.** And the TGI [10]?
**A.** 38.2 µM

**Q.** What about the TGI [11] of the same molecule?
**A.** > 100 µM

**Q.** What about the TGI [12] of the same molecule?
**A.** > 100 µM

**Q.** And the TGI [13]?
**A.** > 100 µM

**Q.** And the TGI [14]?
**A.** > 100 µM

**Q.** What about the TGI [15] of the same molecule?
**A.** 93.8 µM

**Q.** What about the TGI [16] of the same molecule?
**A.** > 100 µM

**Q.** What about the TGI [17] of the same molecule?
**A.** > 100 µM

**Q.** And the TGI [18]?
**A.** > 100 µM

**Q.** And the TGI [19]?
**A.** > 100 µM

**Q.** What about the TGI [20] of the same molecule?
**A.** > 100 µM

**Q.** And the TGI [21]?
**A.** > 100 µM

**Q.** And the TGI [22]?
**A.** > 100 µM

**Q.** And the TGI [23]?
**A.** > 100 µM

**Q.** And the TGI [24]?
**A.** > 100 µM

**Q.** And the TGI [25]?
**A.** > 100 µM

**Q.** What about the TGI [26] of the same molecule?
**A.** > 100 µM

**Q.** And the TGI [27]?
**A.** > 100 µM

**Q.** What about the TGI [28] of the same molecule?
**A.** > 100 µM

**Q.** What about the TGI [29] of the same molecule?
**A.** > 100 µM

**Q.** What about the TGI [30] of the same molecule?
**A.** > 100 µM

**Q.** What about the TGI [31] of the same molecule?
**A.** > 100 µM

**Q.** What about the TGI [32] of the same molecule?
**A.** > 100 µM

**Q.** And the TGI [33]?
**A.** > 100 µM

**Q.** And the TGI [34]?
**A.** > 100 µM

**Q.** And the TGI [35]?
**A.** > 100 µM

**Q.** And the TGI [36]?
**A.** > 100 µM

**Q.** What about the TGI [37] of the same molecule?
**A.** > 100 µM

**Q.** What about the TGI [38] of the same molecule?
**A.** > 100 µM

**Q.** And the TGI [39]?
**A.** > 100 µM

**Q.** And the TGI [40]?
**A.** > 100 µM

**Q.** What about the TGI [41] of the same molecule?
**A.** > 100 µM

**Q.** What about the TGI [42] of the same molecule?
**A.** > 100 µM

**Q.** And the TGI [43]?
**A.** > 100 µM

**Q.** What about the TGI [44] of the same molecule?
**A.** > 100 µM

**Q.** And the TGI [45]?
**A.** > 100 µM

**Q.** And the TGI [46]?
**A.** > 100 µM

**Q.** And the TGI [47]?
**A.** > 100 µM

**Q.** What about the TGI [48] of the same molecule?
**A.** > 100 µM

**Q.** What about the TGI [49] of the same molecule?
**A.** > 100 µM

**Q.** And the TGI [50]?
**A.** > 100 µM

**Q.** And the TGI [51]?
**A.** > 100 µM

**Q.** And the TGI [52]?
**A.** > 100 µM

**Q.** And the TGI [53]?
**A.** > 100 µM

**Q.** What about the TGI [54] of the same molecule?
**A.** > 100 µM

**Q.** With `CC(=O)C1COC(O)C1C` (stereo not drawn) as the molecule, how does the TGI [1] read?
**A.** 49.8 µM

**Q.** What about the TGI [2] of the same molecule?
**A.** > 100 µM

**Q.** And the TGI [3]?
**A.** > 100 µM

**Q.** What about the TGI [4] of the same molecule?
**A.** 80.9 µM

**Q.** And the TGI [5]?
**A.** > 100 µM

**Q.** And the TGI [55]?
**A.** 62.9 µM

**Q.** What about the TGI [6] of the same molecule?
**A.** > 100 µM

**Q.** What about the TGI [7] of the same molecule?
**A.** 34.5 µM

**Q.** And the TGI [8]?
**A.** 70.8 µM

**Q.** What about the TGI [9] of the same molecule?
**A.** > 100 µM

**Q.** What about the TGI [11] of the same molecule?
**A.** 39.6 µM

**Q.** And the TGI [12]?
**A.** 44.4 µM

**Q.** And the TGI [13]?
**A.** 39.7 µM

**Q.** What about the TGI [14] of the same molecule?
**A.** 33 µM

**Q.** And the TGI [15]?
**A.** 78.7 µM

**Q.** What about the TGI [16] of the same molecule?
**A.** 68.8 µM

**Q.** And the TGI [17]?
**A.** > 100 µM

**Q.** What about the TGI [18] of the same molecule?
**A.** 42.5 µM

**Q.** And the TGI [19]?
**A.** > 100 µM

**Q.** And the TGI [20]?
**A.** 28 µM

**Q.** What about the TGI [21] of the same molecule?
**A.** 39.4 µM

**Q.** What about the TGI [22] of the same molecule?
**A.** 61.1 µM

**Q.** And the TGI [24]?
**A.** 67.3 µM

**Q.** And the TGI [25]?
**A.** 68 µM

**Q.** What about the TGI [56] of the same molecule?
**A.** 30.2 µM

**Q.** What about the TGI [26] of the same molecule?
**A.** 43.5 µM

**Q.** And the TGI [57]?
**A.** 99.2 µM

**Q.** What about the TGI [27] of the same molecule?
**A.** 43.4 µM

**Q.** What about the TGI [28] of the same molecule?
**A.** 31.7 µM

**Q.** And the TGI [29]?
**A.** 44.5 µM

**Q.** What about the TGI [31] of the same molecule?
**A.** 48.6 µM

**Q.** What about the TGI [32] of the same molecule?
**A.** 37 µM

**Q.** What about the TGI [34] of the same molecule?
**A.** 59.2 µM

**Q.** What about the TGI [35] of the same molecule?
**A.** 46 µM

**Q.** What about the TGI [58] of the same molecule?
**A.** 55.5 µM

**Q.** What about the TGI [36] of the same molecule?
**A.** 60 µM

**Q.** What about the TGI [38] of the same molecule?
**A.** 49.9 µM

**Q.** What about the TGI [39] of the same molecule?
**A.** 71.9 µM

**Q.** What about the TGI [59] of the same molecule?
**A.** 45.4 µM

**Q.** What about the TGI [40] of the same molecule?
**A.** 29.1 µM

**Q.** What about the TGI [41] of the same molecule?
**A.** 38.6 µM

**Q.** And the TGI [42]?
**A.** 29.7 µM

**Q.** And the TGI [43]?
**A.** 82.3 µM

**Q.** And the TGI [44]?
**A.** 50.6 µM

**Q.** And the TGI [45]?
**A.** > 100 µM

**Q.** What about the TGI [46] of the same molecule?
**A.** 70.4 µM

**Q.** And the TGI [47]?
**A.** 40.1 µM

**Q.** What about the TGI [48] of the same molecule?
**A.** 44.2 µM

**Q.** And the TGI [49]?
**A.** > 100 µM

**Q.** And the TGI [50]?
**A.** > 100 µM

**Q.** What about the TGI [51] of the same molecule?
**A.** 58.2 µM

**Q.** And the TGI [52]?
**A.** > 100 µM

**Q.** What about the TGI [53] of the same molecule?
**A.** 27.2 µM

**Q.** And the TGI [54]?
**A.** 34.9 µM
